Read-outs that look alike come from different tables or passages of the source.
Legend:
Elastase = molecular target: T1, Elastase (Sus scrofa, UniProt P00772); test: Elastase inhibition, fluorogenic substrate assay (MeOSuc-Ala-Ala-Pro-Val-AMC); assay type: biochemical, Sus domesticus; conditions: for IC50 / Mean (RFU/s): 40 min pre-incubation; for IC50: mean, n = 3; for Mean (RFU/s): Elastase
T1 construct: purchased Sigma-Aldrich

Chymotrypsin = molecular target: T2, Chymotrypsin (Bos taurus, UniProt P00766); test: Chymotrypsin inhibition, fluorogenic substrate assay (Suc-Ala-Ala-Pro-Phe-AMC); assay type: biochemical; conditions: for Mean (RFU/s): Chymotrypsin
T2 construct: purchased Sigma-Aldrich

Proteinase K = molecular target: T3, Proteinase K (Parengyodontium album, UniProt P06873); test: Proteinase K inhibition, fluorogenic substrate assay (Suc-Ala-Ala-Pro-Phe-AMC); assay type: biochemical, Tritirachium album; conditions: 40 min pre-incubation; for IC50: mean, n = 3; for Mean (RFU/s): Proteinase K
T3 construct: purchased Roche

[1] = inhibitor concentration 0.0508053 nM
[2] = inhibitor concentration 0.152416 nM
[3] = inhibitor concentration 0.457247 nM
[4] = inhibitor concentration 1.37174 nM
[5] = inhibitor concentration 4.11523 nM
[6] = inhibitor concentration 12.3457 nM
[7] = inhibitor concentration 37.037 nM
[8] = inhibitor concentration 111.111 nM
[9] = inhibitor concentration 333.333 nM
[10] = inhibitor concentration 1000 nM
[11] = inhibitor concentration 3000 nM
[12] = replacement of Abu (compound 2) for Leu (1)
[13] = 40 min pre-incubation, mean, n = 3, read-out: IC50 Chymotrypsin
[14] = inhibitor concentration 0.0508053 nM, 40 min pre-incubation
[15] = inhibitor concentration 0.152416 nM, 40 min pre-incubation
[16] = inhibitor concentration 0.457247 nM, 40 min pre-incubation
[17] = inhibitor concentration 1.37174 nM, 40 min pre-incubation
[18] = inhibitor concentration 4.11523 nM, 40 min pre-incubation
[19] = inhibitor concentration 12.3457 nM, 40 min pre-incubation
[20] = inhibitor concentration 37.037 nM, 40 min pre-incubation
[21] = inhibitor concentration 111.111 nM, 40 min pre-incubation
[22] = inhibitor concentration 333.333 nM, 40 min pre-incubation
[23] = inhibitor concentration 1000 nM, 40 min pre-incubation
[24] = inhibitor concentration 3000 nM, 40 min pre-incubation
[25] = Supplementary Table 5, compounds of this study, read-out: Chymotrypsin IC50

T1 sequence (P00772 27-266): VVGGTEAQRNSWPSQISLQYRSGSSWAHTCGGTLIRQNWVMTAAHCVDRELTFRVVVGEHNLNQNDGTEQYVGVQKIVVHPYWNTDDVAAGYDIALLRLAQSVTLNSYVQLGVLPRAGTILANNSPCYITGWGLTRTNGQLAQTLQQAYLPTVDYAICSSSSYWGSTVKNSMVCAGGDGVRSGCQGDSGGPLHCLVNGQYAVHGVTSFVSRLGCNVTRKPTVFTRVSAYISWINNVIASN
T3 sequence (P06873 106-384): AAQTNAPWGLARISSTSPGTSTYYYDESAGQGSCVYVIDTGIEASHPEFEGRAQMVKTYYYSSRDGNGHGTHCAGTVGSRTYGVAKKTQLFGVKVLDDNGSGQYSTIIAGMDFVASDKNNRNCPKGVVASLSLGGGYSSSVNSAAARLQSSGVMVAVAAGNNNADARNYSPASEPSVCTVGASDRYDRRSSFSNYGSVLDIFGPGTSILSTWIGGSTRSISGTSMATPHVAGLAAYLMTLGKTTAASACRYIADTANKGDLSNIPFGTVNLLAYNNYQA

Question: Which IC50 (Elastase) does the source give for CCCC(=O)N1CCCC1C(=O)NC(C(=O)NC1C(=O)NC(CC(C)C)C(=O)NC2CCC(O)N(C2=O)C(Cc2ccccc2)C(=O)N(C)C(Cc2ccc(O)cc2)C(=O)NC(C(C)C)C(=O)OC1C)C(C)OC(=O)C1CCCN1C(=O)CCC (stereo not shown) [Rivulariapeptolide 1185, rivulariapeptolide 1185] here?
Answer: The IC50 was 23.6 nM.

Question: And the “Mean (RFU/s)” value (Elastase; [1])?
Answer: Its value is 0.9257 RFU/s.

Question: And the “Mean (RFU/s)” value (Elastase; [2])?
Answer: Its value is 0.9033 RFU/s.

Question: What about the “Mean (RFU/s)” value (Elastase; [3]) of the same compound?
Answer: The value was 0.876 RFU/s.

Question: And the “Mean (RFU/s)” value (Elastase; [4])?
Answer: The value was 0.8487 RFU/s.

Question: What about the “Mean (RFU/s)” value (Elastase; [5]) of the same compound?
Answer: The value was 0.7693 RFU/s.

Question: What about the “Mean (RFU/s)” value (Elastase; [6]) of the same compound?
Answer: Its value is 0.589 RFU/s.

Question: And the “Mean (RFU/s)” value (Elastase; [7])?
Answer: The value was 0.369 RFU/s.

Question: And the “Mean (RFU/s)” value (Elastase; [8])?
Answer: Its value is 0.07933 RFU/s.

Question: What about the “Mean (RFU/s)” value (Elastase; [9]) of the same compound?
Answer: Its value is 0.02233 RFU/s.

Question: And the “Mean (RFU/s)” value (Elastase; [10])?
Answer: The value was 0 RFU/s.

Question: And the “Mean (RFU/s)” value (Elastase; [11])?
Answer: The value was 0 RFU/s.

Question: What about the “decrease in potency towards elastase” value (Elastase; [12]) of the same compound?
Answer: The value was “fivefold”.

Question: What about the IC50 (Chymotrypsin; [13]) of the same compound?
Answer: Its IC50 is 13.2 nM.

Question: And the “Mean (RFU/s)” value (Chymotrypsin; [14])?
Answer: The value was 5.046 RFU/s.

Question: What about the “Mean (RFU/s)” value (Chymotrypsin; [15]) of the same compound?
Answer: The value was 5.119 RFU/s.

Question: And the “Mean (RFU/s)” value (Chymotrypsin; [16])?
Answer: Its value is 5.025 RFU/s.

Question: And the “Mean (RFU/s)” value (Chymotrypsin; [17])?
Answer: Its value is 5.024 RFU/s.

Question: What about the “Mean (RFU/s)” value (Chymotrypsin; [18]) of the same compound?
Answer: The value was 4.153 RFU/s.

Question: What about the “Mean (RFU/s)” value (Chymotrypsin; [19]) of the same compound?
Answer: Its value is 2.685 RFU/s.

Question: What about the “Mean (RFU/s)” value (Chymotrypsin; [20]) of the same compound?
Answer: Its value is 1.084 RFU/s.

Question: And the “Mean (RFU/s)” value (Chymotrypsin; [21])?
Answer: The value was 0.416 RFU/s.

Question: And the “Mean (RFU/s)” value (Chymotrypsin; [22])?
Answer: Its value is 0.1823 RFU/s.

Question: And the “Mean (RFU/s)” value (Chymotrypsin; [23])?
Answer: The value was 0 RFU/s.

Question: What about the “Mean (RFU/s)” value (Chymotrypsin; [24]) of the same compound?
Answer: The value was 0 RFU/s.

Question: And the IC50 (Chymotrypsin; [25])?
Answer: Its IC50 is 13.2 nM.

Question: And the “increase in potency towards chymotrypsin” value (Chymotrypsin; [12])?
Answer: The value was “more than threefold”.

Question: And the IC50 (Proteinase K)?
Answer: Its IC50 is 55.3 nM.

Question: And the “Mean (RFU/s)” value (Proteinase K; [1])?
Answer: Its value is 6.418 RFU/s.

Question: And the “Mean (RFU/s)” value (Proteinase K; [2])?
Answer: The value was 6.488 RFU/s.

Question: And the “Mean (RFU/s)” value (Proteinase K; [3])?
Answer: The value was 6.316 RFU/s.

Question: What about the “Mean (RFU/s)” value (Proteinase K; [4]) of the same compound?
Answer: Its value is 6.389 RFU/s.

Question: What about the “Mean (RFU/s)” value (Proteinase K; [5]) of the same compound?
Answer: Its value is 6.178 RFU/s.

Question: What about the “Mean (RFU/s)” value (Proteinase K; [6]) of the same compound?
Answer: The value was 5.621 RFU/s.

Question: And the “Mean (RFU/s)” value (Proteinase K; [7])?
Answer: The value was 4.195 RFU/s.

Question: What about the “Mean (RFU/s)” value (Proteinase K; [8]) of the same compound?
Answer: The value was 1.657 RFU/s.

Question: And the “Mean (RFU/s)” value (Proteinase K; [9])?
Answer: Its value is 0.4863 RFU/s.

Question: What about the “Mean (RFU/s)” value (Proteinase K; [10]) of the same compound?
Answer: Its value is 0.13 RFU/s.

Question: What about the “Mean (RFU/s)” value (Proteinase K; [11]) of the same compound?
Answer: The value was 0.04267 RFU/s.

Question: Which results are given for CC=C1NC(=O)[C@@H](NC(=O)[C@@H](NC(=O)[C@@H]2CCCN2C(=O)CCC)[C@@H](C)O)[C@@H](C)OC(=O)[C@H](C(C)C)NC(=O)[C@H](Cc2ccc(O)cc2)N(C)C(=O)[C@H](Cc2ccccc2)N2C(=O)[C@H](CC[C@H]2O)NC1=O [Rivulariapeptolide 988, rivulariapeptolide 988]?
Answer: IC50 (Elastase): 15.3 nM; Mean (RFU/s) (Elastase; [1]): 0.804 RFU/s; Mean (RFU/s) (Elastase; [2]): 0.8127 RFU/s; Mean (RFU/s) (Elastase; [3]): 0.808 RFU/s; Mean (RFU/s) (Elastase; [4]): 0.7693 RFU/s; Mean (RFU/s) (Elastase; [5]): 0.661 RFU/s; Mean (RFU/s) (Elastase; [6]): 0.463 RFU/s; Mean (RFU/s) (Elastase; [7]): 0.2057 RFU/s; Mean (RFU/s) (Elastase; [8]): 0.065 RFU/s; Mean (RFU/s) (Elastase; [9]): 0.018 RFU/s; Mean (RFU/s) (Elastase; [10]): 0 RFU/s; Mean (RFU/s) (Elastase; [11]): 0 RFU/s; IC50 (Chymotrypsin; [13]): 95.5 nM; Mean (RFU/s) (Chymotrypsin; [14]): 4.956 RFU/s; Mean (RFU/s) (Chymotrypsin; [15]): 4.945 RFU/s; Mean (RFU/s) (Chymotrypsin; [16]): 5.008 RFU/s; Mean (RFU/s) (Chymotrypsin; [17]): 5.099 RFU/s; Mean (RFU/s) (Chymotrypsin; [18]): 4.694 RFU/s; Mean (RFU/s) (Chymotrypsin; [19]): 4.587 RFU/s; Mean (RFU/s) (Chymotrypsin; [20]): 3.41 RFU/s; Mean (RFU/s) (Chymotrypsin; [21]): 2.381 RFU/s; Mean (RFU/s) (Chymotrypsin; [22]): 1.135 RFU/s; Mean (RFU/s) (Chymotrypsin; [23]): 0.4203 RFU/s; Mean (RFU/s) (Chymotrypsin; [24]): 0.1363 RFU/s; IC50 (Chymotrypsin; [25]): 95.5 nM; IC50 (Proteinase K): 85.5 nM; Mean (RFU/s) (Proteinase K; [1]): 6.083 RFU/s; Mean (RFU/s) (Proteinase K; [2]): 6.104 RFU/s; Mean (RFU/s) (Proteinase K; [3]): 6.172 RFU/s; Mean (RFU/s) (Proteinase K; [4]): 5.959 RFU/s; Mean (RFU/s) (Proteinase K; [5]): 5.86 RFU/s; Mean (RFU/s) (Proteinase K; [6]): 5.64 RFU/s; Mean (RFU/s) (Proteinase K; [7]): 4.799 RFU/s; Mean (RFU/s) (Proteinase K; [8]): 2.395 RFU/s; Mean (RFU/s) (Proteinase K; [9]): 0.4403 RFU/s; Mean (RFU/s) (Proteinase K; [10]): 0.07367 RFU/s; Mean (RFU/s) (Proteinase K; [11]): 0.022 RFU/s

Source: publication PMC9358669, “Native metabolomics identifies the rivulariapeptolide family of protease inhibitors” (Nature Communications, 2022)
